Results on 20 compounds are retold here after patent US20030125234A1, “Alteration of protein stability” (priority 2001, published 2003).

“Also recorded” adds a separate entry of the source. Residues, ends and D or L forms follow the SMILES beside them.

Holding throughout (type): biochemical
One assay concerns the target T1, Bovine insulin (Bos taurus, UniProt P01317).
T1 construct: purchased Sigma, St. Louis, Mo., USA
Briefly: Insulin aggregation (turbidity at 360 nm) induced by DTT. Conditions: for inhibition index: Insulin 0.25 mg/mL, 25° C., DTT, compound 100×, standard deviation in parenthesis. The method, boiled down:
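Bovine insulin was dissolved in pH 7.0 PBS (50 mM sodium biphosphate, 100 mM sodium chloride) at 0.25 mg/mL (4.39E-5 M). Test compounds were added, then aggregation was induced with 20 μL of 1 M DTT […]. Turbidity at 360 nm was followed for 1 hour at 25° C. and compared with insulin lacking the compound.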

Assay [1] deals with T2, yeast alcohol dehydrogenase (ADH) (Saccharomyces cerevisiae, UniProt P00330).
T2 construct: purchased Sigma
T2 sequence (P00330 2-348 limits assumed): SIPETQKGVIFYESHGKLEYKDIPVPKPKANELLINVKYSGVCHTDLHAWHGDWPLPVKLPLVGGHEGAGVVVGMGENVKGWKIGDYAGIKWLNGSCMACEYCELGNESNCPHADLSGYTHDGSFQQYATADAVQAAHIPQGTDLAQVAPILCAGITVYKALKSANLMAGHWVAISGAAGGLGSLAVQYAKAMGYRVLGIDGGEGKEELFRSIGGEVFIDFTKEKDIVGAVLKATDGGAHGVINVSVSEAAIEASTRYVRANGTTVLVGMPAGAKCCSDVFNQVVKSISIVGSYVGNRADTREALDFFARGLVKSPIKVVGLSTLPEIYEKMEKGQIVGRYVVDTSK
Briefly: ADH oxidation-induced aggregation (turbidity at 360 nm), Cu(OP)2. Conditions: for inhibition index: ADH 1 mg/mL, 37° C., Cu(OP)2; for inhibition of ADH aggregation, in words: FIG. 1. In short, it runs like this:
(§1)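 OD360 was followed for 1 h against protein without test compound. pST (1.27 mg/mL, pH 6.1 phosphate) at 60° C with 20 mg/mL PEG 8000; lysozyme (0.4 mg/mL, pH 8.2 Tris/EDTA) at 25° C and HLF (0.4 mg/mL, pH 7.4 HEPES) at 43° C with 1.27E-4 M DTT; ADH (1 mg/mL) 37° C, 7.76E-5 M Cu(OP)2.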

Assay [2] deals with human acidic fibroblast growth factor (FGF-1) (Homo sapiens, UniProt P05230). Kind of assay: FGF-1 thermal aggregation (turbidity at 360 nm). The following applies: for inhibition index: FGF-1 50 μg/mL, 50° C., standard deviation in parenthesis. The method, boiled down:
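Heat-induced aggregation followed as OD360 for 1 h, cycled every 30 s: citrate synthase 96 μg/mL in HEPES/KCl/(NH4)2SO4 buffer pH 7.8 at 45° C; FGF-1 50 μg/mL in phosphate/NaCl pH 7.2 at 50° C. Rate taken as maximum slope of OD versus time, compared with protein without additive.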

Assay [3] has as its target T3, porcine somatotropin (pST) (Sus scrofa, UniProt P01248).
T3 construct: purchased Pfizer, Inc., Groton, Conn., USA (provided, not bought)
T3 sequence (P01248 27-216): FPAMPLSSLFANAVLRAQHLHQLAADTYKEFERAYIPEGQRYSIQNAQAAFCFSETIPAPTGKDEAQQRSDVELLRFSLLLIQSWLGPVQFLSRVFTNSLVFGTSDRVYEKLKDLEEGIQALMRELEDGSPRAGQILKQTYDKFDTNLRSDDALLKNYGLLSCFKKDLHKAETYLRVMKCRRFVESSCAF
Briefly: Porcine somatotropin aggregation (turbidity at 360 nm) with PEG 8000. Conditions: pST 1.27 mg/mL, 60° C., standard deviation in parenthesis. The method, boiled down:
as §1

The mark [4] stands for this setting: compound 10,000X molar excess, Infinite = complete inhibition of aggregation over one hour.
[5] abbreviates: compound 1,000X, standard deviation in parenthesis.

T1 sequence (P01317 25-54 limits assumed): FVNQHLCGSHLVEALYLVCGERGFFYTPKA
T1 sequence (P01317 85-105 limits assumed): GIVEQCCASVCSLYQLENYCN
Sequence of human acidic fibroblast growth factor (FGF-1) (P05230 whole entry): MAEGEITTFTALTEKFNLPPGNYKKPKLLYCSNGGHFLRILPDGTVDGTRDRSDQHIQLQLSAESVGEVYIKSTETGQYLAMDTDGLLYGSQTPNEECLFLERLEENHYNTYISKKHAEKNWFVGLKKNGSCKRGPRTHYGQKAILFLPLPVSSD

For the compound `NCCCCCCC(=O)O` [7-aminoheptanoate, 7-aminoheptanoic acid], at Bovine insulin, the “inhibition of insulin aggregation, in words” value is listed as “weak inhibitions”. For the same compound, the inhibition index is on record as 2.4 (1.0) on Bovine insulin; 4.9 (0.5) in assay [1] (setting [4]); 0.9 (0.4) in assay [2] (compound 1,000×); 1.3 (0.1) in assay [2] (compound 10,000×); 0.4 (0.0) in assay [3] (compound 100X); 1.6 (0.2) in assay [3] (compound 2,000X).
On to `O=C(O)CCC(=O)O` [succinate, succinic acid], for which the inhibition index is reported as 1.0 (0.3) at Bovine insulin; 2.7 (0.7) in assay [1] (setting [4]); 2.1 (0.4) in assay [2] (compound 1,000×); 9.2 (1.9) in assay [2] (compound 10,000×); 0.9 (0.1) in assay [3] (compound 100X); 2.1 (0.3) in assay [3] (compound 2,000X).
For pentaglycine, the inhibition index on Bovine insulin is reported as 1.0 (0.2); in assay [1] (setting [5]), 5.8 (3.1); in assay [1] (setting [4]), “Infinite^4”; in assay [3] (compound 100X), 0.7 (0.2).
`O=C(O)C(=O)O` [oxalate, oxalic acid]: the inhibition index is on record as 0.9 (0.6)^3 on Bovine insulin; 5.2 (1.5) in assay [2] (compound 1,000×); 605.5 (89.1) in assay [2] (compound 10,000×); 0.8 (0.1) in assay [3] (compound 100X); 1.5 (0.3) in assay [3] (compound 2,000X). Also, the “inhibition of ADH aggregation, in words” value in assay [1] is “most potent inhibitor; also recorded: effective inhibitors”. The “inhibition of FGF-1 aggregation, in words” value in assay [2] (text and FIG. 2 (1,000X to 50,000X)) is “effective inhibitors”.
Take `O=C([O-])CC(=O)[O-].[Na+].[Na+]` [malonate, sodium malonate]: the inhibition index at Bovine insulin is reported as 1.2 (0.5); in assay [1] (setting [4]) it was 18.9 (6.6); in assay [2] (compound 1,000×), 2.2 (0.4); in assay [2] (compound 10,000×) it was 36.6 (29.0); in assay [3] (compound 100X), 0.9 (0.1); in assay [3] (compound 2,000X), 4.9 (0.5).
Regarding `O=C(O)CCCCCC(=O)O` [pimelate, pimelic acid], the inhibition index at Bovine insulin is reported as 1.4 (0.6); in assay [1] (setting [4]), 9.0 (1.3); in assay [2] (compound 1,000×) it was 3.1 (1.0); in assay [2] (compound 10,000×), 12.1 (8.8); in assay [3] (compound 100X) it was 0.8 (0.1); in assay [3] (compound 2,000X), 1.5 (0.4).
Take `NCCCCC(=O)O` [5-aminovalerate, 5-aminovaleric acid]: the inhibition index at Bovine insulin is recorded as 1.2 (0.1); in assay [1] (setting [4]) it was 2.7 (0.9); in assay [2] (compound 1,000×), 1.1 (0.2); in assay [2] (compound 10,000×) it was 2.2 (1.4); in assay [3] (compound 100X), 0.4 (0.0); in assay [3] (compound 2,000X), 0.7 (0.1).
For `NCCCCCCN` [1,6-diaminohexane], the inhibition index is listed as 1.5 (0.3) on Bovine insulin; 0.8 (0.0) in assay [1] (setting [4]); 1.6 (0.6) in assay [2] (compound 1,000×); 27.0 (9.8) in assay [2] (compound 10,000×); 0.6 (0.1) in assay [3] (compound 100X); 1.9 (0.2) in assay [3] (compound 2,000X).
Consider `NCC(=O)O` [glycine], for which the inhibition index at Bovine insulin is given as 1.0 (0.3); in assay [1] (setting [4]), 54.3 (4.5); in assay [2] (compound 1,000×), 1.3 (0.3); in assay [2] (compound 10,000×), 3.0 (1.7); in assay [3] (compound 100X), 0.4 (0.1); in assay [3] (compound 2,000X), 1.2 (0.2). The “inhibition of ADH aggregation, in words” value in assay [1] was “Potent inhibition; also recorded: effective inhibitors”.
For `NCCCCCCCN` [1,7-diaminoheptane], the “inhibition of insulin aggregation, in words” value against Bovine insulin is given as “weak inhibitions”. Moreover, the inhibition index on Bovine insulin is reported as 2.7 (1.0); in assay [1] (setting [4]), 0.6 (0.1); in assay [2] (compound 1,000×) it was 2.0 (0.7); in assay [2] (compound 10,000×), 6.2 (2.4); in assay [3] (compound 100X) it was 0.7 (0.0); in assay [3] (compound 2,000X) it was 1.6( 0.7).
Consider tetraglycine, for which the inhibition index on Bovine insulin is on record as 1.5 (0.3); in assay [1] (setting [5]) it was 8.4 (2.7); in assay [1] (setting [4]), 5313.1; in assay [2] (compound 1,000×), 3.8 (0.8); in assay [3] (compound 100X) it was 0.8 (0.1); in assay [3] (compound 2,000X), 3.4 (0.6).
On to `NCCCCCC(=O)O` [6-aminocaproate, 6-aminocaproic acid], for which the inhibition index at Bovine insulin is 1.4 (0.2); in assay [1] (setting [4]), 3.2 (0.3); in assay [2] (compound 1,000×), 2.2 (0.3); in assay [2] (compound 10,000×), 2.4 (0.5); in assay [3] (compound 100X), 0.5 (0.1); in assay [3] (compound 2,000X), 1.2 (0.2).
For `NCCCN` [1,3-diaminopropane], the inhibition index at Bovine insulin was 1.3 (0.3); in assay [1] (setting [4]), 0.7 (0.1); in assay [2] (compound 1,000×), 2.2 (0.3); in assay [2] (compound 10,000×) it was 3.5 (2.3); in assay [3] (compound 100X) it was 0.6 (0.0); in assay [3] (compound 2,000X), 1.7 (0.2).
Turning to `NCC(=O)NCC(=O)NCC(=O)O` [triglycine] (H-Gly-Gly-Gly-OH), the inhibition index is recorded as 1.4 (0.1) on Bovine insulin; 5.0 (1.4) in assay [1] (setting [5]); 187.6 (46.1) in assay [1] (setting [4]); 2.2 (1.1) in assay [2] (compound 1,000×); 3.1 (0.9) in assay [2] (compound 10,000×); 0.7 (0.0) in assay [3] (compound 100X). In addition, in assay [3] (compound 2,000X), the inhibition index is given as 2.5 (0.3).
For the compound `NCCCCCN` [1,5-diaminopentane], the inhibition index is given as 1.5 (0.6) on Bovine insulin; 0.9 (0.0) in assay [1] (setting [4]); 3.3 (0.7) in assay [2] (compound 1,000×); 46.5 (19.8) in assay [2] (compound 10,000×); 0.8 (0.3) in assay [3] (compound 100X); 1.7 (0.4) in assay [3] (compound 2,000X).
With `NCCC(=O)O` [beta-alanine], the inhibition index on Bovine insulin is reported as 1.1 (0.1); in assay [1] (setting [4]), 2.2 (0.3); in assay [2] (compound 1,000×), 1.1 (0.2); in assay [2] (compound 10,000×), 1.5 (0.5); in assay [3] (compound 100X) it was 0.4 (0.1); in assay [3] (compound 2,000X) it was 0.8 (0.1).
For `NCCCC(=O)O` [4-aminobuytrate, 4-aminobutyric acid], the inhibition index on Bovine insulin is reported as 1.2 (0.3); in assay [1] (setting [4]), 2.0 (0.1); in assay [2] (compound 1,000×), 1.5 (0.0); in assay [2] (compound 10,000×) it was 1.4 (0.3); in assay [3] (compound 100X) it was 0.3 (0.0); in assay [3] (compound 2,000X), 1.1 (0.2).
Consider `NCCCCN` [1,4-diaminobutane], for which the inhibition index is listed as 1.4 (0.4) on Bovine insulin; 0.8 (0.1) in assay [1] (setting [4]); 2.5 (1.3) in assay [2] (compound 1,000×); 33.7 (6.6) in assay [2] (compound 10,000×); 0.6 (0.1) in assay [3] (compound 100X); 1.4 (0.4) in assay [3] (compound 2,000X).
As to `O=C(O)CCCCCCC(=O)O` [suberate, suberic acid], the inhibition index on Bovine insulin is on record as 1.6 (0.3); in assay [1] (setting [4]) it was 15.5 (1.4); in assay [2] (compound 1,000×) it was 2.3 (0.5); in assay [2] (compound 10,000×), 7.1 (5.4); in assay [3] (compound 100X) it was 0.7 (0.0); in assay [3] (compound 2,000X) it was 1.7 (0.3).
Turning to `NCCN` [ethylenediamine], the inhibition index on Bovine insulin is listed as 0.9 (0.3); in assay [1] (setting [4]), 202.6 (69.7); in assay [2] (compound 1,000×), 2.2 (0.7); in assay [2] (compound 10,000×), 3.3 (1.3); in assay [3] (compound 100X) it was 0.7 (0.0); in assay [3] (compound 2,000X), 1.3 (0.1). In addition, the “inhibition of ADH aggregation, in words” value in assay [1] is “effective inhibitors”.
